This note sets out measurements from ChEMBL document CHEMBL1201862, “PubChem BioAssay data set” (2004).

The structures appear in SMILES notation.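 Cells were grown in 96-well plates and exposed to each compound for 48 hours at five concentrations; endpoints were interpolated linearly between bracketing concentrations, or set to the highest concentration if not reached. GI50 is the concentration that inhibits growth by half.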 Active and inactive are the calls of the source. Cut-off read from the data, not from the text of the source: active = GI50 up to about 1.1 µM and inactive = higher. Bounds are passed on as bounds.

Some test systems named below: MCF7; SF-295; NCI-H460; KM12; HOP-62; NCI-H23; SK-MEL-5; CCRF-CEM; SK-MEL-2; DU-145; HCT-15; T47D; ACHN; NCI/ADR-RES; Hs-578T; M14; BT-549; SN12C; 786-0; MOLT-4.
Common to all, as to experiment: inhibition of tumour cell growth, NCI panel, 48 h

As for `Cc1ccc(C)c(NC(=O)NCc2ccc(Cl)cc2)c1`, the GI50 in the assay with MCF7 is 50.2 µM (inactive); in the assay with SF-295, 16.7 µM (inactive); in the assay on NCI-H460 it was > 85.3 µM (inactive); in the assay with KM12, 87.3 µM (inactive); in the assay on HOP-62, 9.31 µM (inactive); with NCI-H23, 35.7 µM (inactive). Moreover, the GI50 is > 70.5 µM (inactive) in the assay with SK-MEL-5; 8.51 µM (inactive) in the assay with CCRF-CEM; > 63 µM (inactive) in the assay with SK-MEL-2; > 66.7 µM (inactive) in the assay on DU-145; > 100 µM in the assay with HCT-15; 43.7 µM (inactive) in the assay on T47D. Also, the GI50 was 20.5 µM (inactive) with ACHN; > 58.1 µM (inactive) with NCI/ADR-RES; 25.5 µM (inactive) in the assay with Hs-578T; 52.5 µM (inactive) in the assay on M14; > 100 µM (inactive) in the assay on BT-549; 36.3 µM (inactive) in the assay with SN12C. For the same compound, in the assay with 786-0, the GI50 was 20.6 µM (inactive).

For the compound `Cn1c(C(C)(C)OC(=O)Oc2ccccc2)cnc1[N+](=O)[O-]`, the GI50 in the assay with MCF7 is 63 µM (inactive); in the assay on SF-295 it was > 100 µM (inactive); in the assay on MOLT-4 it was 16.7 µM (inactive); with NCI-H460, 80.9 µM (inactive); in the assay on KM12, 58.6 µM (inactive); in the assay with HOP-62 it was > 100 µM (inactive). In addition, the GI50 with NCI-H23 was > 100 µM (inactive); with SK-MEL-5, 53.3 µM (inactive); with SK-MEL-2 it was > 100 µM (inactive); with DU-145, > 100 µM (inactive); in the assay with HCT-15 it was > 100 µM; in the assay with T47D, > 100 µM (inactive). For the same compound, the GI50 with ACHN is > 100 µM (inactive); in the assay with NCI/ADR-RES, > 100 µM (inactive); in the assay with Hs-578T it was > 100 µM (inactive); in the assay on M14, > 100 µM (inactive); in the assay on BT-549, > 100 µM (inactive); in the assay on SN12C, 19.7 µM (inactive). For the same compound, the GI50 in the assay with 786-0 is > 100 µM (inactive).

In the case of `N#CC(C#N)=C1CCCS(=O)(=O)c2ccccc21`, the GI50 in the assay on MCF7, with SF-295, in the assay on MOLT-4, in the assay with NCI-H460, in the assay on KM12 and with HOP-62 was > 100 µM (inactive) in each case. The GI50 with NCI-H23 was > 100 µM (inactive); in the assay on CCRF-CEM it was > 100 µM (inactive); in the assay on SK-MEL-2, > 100 µM (inactive); in the assay with DU-145 it was > 100 µM (inactive); with HCT-15, > 100 µM; with T47D, > 100 µM (inactive). Moreover, the GI50 in the assay with ACHN, in the assay with NCI/ADR-RES, in the assay with Hs-578T, with M14, in the assay with BT-549 and in the assay on SN12C was > 100 µM (inactive) throughout. Moreover, the GI50 in the assay on 786-0 is > 100 µM (inactive).

Turning to `CC(=O)OCCCCn1nncc1Cn1ccc(=O)n(Cc2cnnn2CCCCOC(C)=O)c1=O`, the GI50 with MCF7, in the assay on SF-295, in the assay on MOLT-4, in the assay on KM12, in the assay on HOP-62 and in the assay on NCI-H23 was > 100 µM (inactive) in each case. For the same compound, the GI50 in the assay with SK-MEL-5 was > 100 µM (inactive); in the assay on CCRF-CEM, 0.385 µM (active); in the assay with SK-MEL-2, > 100 µM (inactive); in the assay on DU-145 it was > 100 µM (inactive); in the assay on HCT-15 it was > 100 µM; with T47D it was > 100 µM (inactive). Moreover, the GI50 in the assay with ACHN, in the assay on NCI/ADR-RES, in the assay on Hs-578T, with M14, in the assay with BT-549 and in the assay on SN12C was > 100 µM (inactive) each time. The GI50 in the assay on 786-0 is > 100 µM (inactive).

As to `CN(/N=C\c1ccc2ccccc2c1)C1=NCCCN1`, the GI50 in the assay on MCF7 is 3.56 µM (inactive); with SF-295, 11.9 µM (inactive); in the assay on MOLT-4, 2.39 µM (inactive); with NCI-H460 it was 4.7 µM (inactive); in the assay on KM12, 15 µM (inactive); in the assay on HOP-62 it was 12.1 µM (inactive). In addition, the GI50 was 25.9 µM (inactive) in the assay with NCI-H23; 11.9 µM (inactive) in the assay with SK-MEL-5; 12.7 µM (inactive) in the assay on CCRF-CEM; 15.2 µM (inactive) in the assay on SK-MEL-2; 27.4 µM (inactive) with DU-145; 17.7 µM with HCT-15. The GI50 with T47D is 22.6 µM (inactive); with ACHN it was 13.3 µM (inactive); in the assay on NCI/ADR-RES, 19.5 µM (inactive); with Hs-578T it was 10.7 µM (inactive); with BT-549, 1.87 µM (inactive); with 786-0, 12.7 µM (inactive).

Take `O=C(O)CN1CCN(CC(=O)N2CCN(C(=O)OCc3ccccc3)CC2)CCN(CC(=O)O)CCN(CC(=O)N2CCN(C(=O)OCc3ccccc3)CC2)CC1`: the GI50 with MCF7, in the assay on SF-295, in the assay with MOLT-4, in the assay with NCI-H460, in the assay with KM12 and in the assay on HOP-62 was > 100 µM (inactive) throughout. Further, the GI50 with SK-MEL-5 was > 100 µM (inactive); in the assay with CCRF-CEM it was > 100 µM (inactive); in the assay with SK-MEL-2, > 100 µM (inactive); in the assay on DU-145, > 100 µM (inactive); in the assay with HCT-15, > 100 µM; in the assay with T47D it was > 100 µM (inactive). Besides, the GI50 with ACHN, with NCI/ADR-RES, with Hs-578T, with M14, with BT-549 and in the assay with SN12C was > 100 µM (inactive) each time. The GI50 in the assay with 786-0 is > 100 µM (inactive).

Turning to `Cc1cc2nc(N)n[n+]([O-])c2cc1C`, the GI50 with MCF7, in the assay on SF-295, with MOLT-4, with KM12, with HOP-62 and in the assay on NCI-H23 was > 100 µM (inactive) throughout. The GI50 is > 100 µM (inactive) in the assay on SK-MEL-5; > 100 µM (inactive) in the assay with CCRF-CEM; > 100 µM (inactive) in the assay with SK-MEL-2; > 100 µM (inactive) in the assay with DU-145; > 100 µM in the assay on HCT-15; > 100 µM (inactive) in the assay with T47D. Further, the GI50 with ACHN, in the assay with NCI/ADR-RES, with Hs-578T, in the assay with M14, with BT-549 and with SN12C was > 100 µM (inactive) each time. Also, the GI50 with 786-0 is > 100 µM (inactive).

In the case of `Cc1cc(N(CCC#N)CCC#N)ccc1C(/N=N\c1ccc([N+](=O)[O-])cc1)=N\NC(=O)c1cc(Cl)ccc1O`, the GI50 with MCF7 is 22.6 µM (inactive); with SF-295, 29.1 µM (inactive); in the assay on MOLT-4, 20.3 µM (inactive); in the assay on NCI-H460, 25.1 µM (inactive); with KM12, 27.7 µM (inactive); in the assay with HOP-62, 26.2 µM (inactive). Also, the GI50 is 15.6 µM (inactive) in the assay with NCI-H23; 30.6 µM (inactive) in the assay on SK-MEL-5; 25.1 µM (inactive) with CCRF-CEM; 34.4 µM (inactive) in the assay with SK-MEL-2; 46.3 µM (inactive) in the assay on DU-145; 29.6 µM in the assay on HCT-15. The GI50 was 25.9 µM (inactive) in the assay with T47D; 27.8 µM (inactive) in the assay with ACHN; 28.7 µM (inactive) in the assay with NCI/ADR-RES; 15.7 µM (inactive) with Hs-578T; 42 µM (inactive) in the assay with M14; 34.8 µM (inactive) in the assay with BT-549. The results for the GI50 in the assay on SN12C and in the assay with 786-0 were 22.6 µM (inactive) and 47.8 µM (inactive), respectively.

As to `COc1cc2c(cc1O)CC[n+]1cc3c(OC)c(OC)ccc3cc1-2`, the GI50 in the assay on MCF7 was > 100 µM (inactive); in the assay on SF-295, > 100 µM (inactive); in the assay on MOLT-4 it was > 100 µM (inactive); in the assay on NCI-H460, > 100 µM (inactive); with KM12, 76.7 µM (inactive); with NCI-H23 it was 62.5 µM (inactive). Moreover, the GI50 was 51.1 µM (inactive) with SK-MEL-5; > 100 µM (inactive) in the assay with CCRF-CEM; > 100 µM (inactive) in the assay with SK-MEL-2; > 100 µM (inactive) in the assay on DU-145; > 100 µM with HCT-15; 94.4 µM (inactive) in the assay with T47D. In addition, the GI50 with ACHN is > 100 µM (inactive); with NCI/ADR-RES it was > 100 µM (inactive); with Hs-578T, > 100 µM (inactive); with M14, > 100 µM (inactive); in the assay with BT-549, 47.3 µM (inactive); in the assay on SN12C, > 100 µM (inactive). The GI50 in the assay on 786-0 was > 100 µM (inactive).

In the case of `Cc1ccc([S+]([O-])CC(CF)OCn2cc(C)c(=O)[nH]c2=O)cc1` (stereo not given), the GI50 with MCF7, with SF-295, with MOLT-4, in the assay on NCI-H460, with KM12 and with HOP-62 was > 100 µM (inactive) throughout. The GI50 in the assay on NCI-H23 is > 100 µM (inactive); in the assay with SK-MEL-5, > 100 µM (inactive); with SK-MEL-2 it was > 100 µM (inactive); in the assay with DU-145, > 100 µM (inactive); in the assay on HCT-15, > 100 µM; in the assay with T47D it was > 100 µM (inactive). Further, the GI50 was > 100 µM (inactive) with ACHN; > 100 µM (inactive) in the assay with NCI/ADR-RES; > 100 µM (inactive) in the assay with Hs-578T; > 100 µM (inactive) in the assay with M14; 90.2 µM (inactive) in the assay with BT-549; > 100 µM (inactive) with SN12C. Further, the GI50 in the assay with 786-0 is > 100 µM (inactive).
